From patent US12544392B2, “Treatment of adenovirus infection or disease associated with adenovirus infection” (SymBio Pharmaceuticals Limited, priority 2023, dated 2026)

Experiments:
[1] = PK of BCV in plasma with or without concomitant cyclosporine; assay type: in vivo, human; conditions: for increase of AUCinf of BCV in plasma compared with BCV alone / increase of Cmax of BCV in plasma compared with BCV alone: healthy subjects
From the text: (§1) Subjects 101-12 of cohort 2, and 101-15, 101-18 and 110-06 of cohort 3 took cyclosporine, an immunosuppressive drug, during the treatment period (duration of treatment) of intravenous BCV. Prior PK studies in healthy subjects have shown a significant increase in plasma BCV exposure with concomitant intravenous infusion of BCV and cyclosporine. […] In view of the above, for the above patients taking cyclosporine, any of the doses indicated in 1.1.3 (cohorts 1-3) above is reduced to 60% for administration. Note that when cyclosporine is administered as BID (twice daily) oral or injectable form, the administration is conducted with an interval of 2 hours after the completion of intravenous BCV. In the case of continuous infusion of cyclosporine for 24 hours, no interval is needed.
as §1, with “Prior” for “Subjects 101-12 of cohort 2, and 101-15, 101-18 and 110-06 of cohort 3 took cyclosporine, an immunosuppressive drug, during the treatment period (duration of treatment) of intravenous BCV. Prior”, “4.1.3” for “1.1.3”, “4-6)” for “1-3)”

adenovirus (AdV) = assay: Human clinical study of once-weekly IV BCV (Example 4): viral load of AdV in plasma; assay type: in vivo; conditions: cohorts 4-6: 0.4, 0.6 or 0.8 mg/kg (20, 30 or 40 mg/dose if body weight ≥50 kg) IV once weekly
Experimental: A human clinical study on the treatment of AdV infectious disease is conducted according to the following procedure. Patients aged 2 months or older who have asymptomatic AdV infection or AdV disease and have an underlying immunocompromised state, including hematopoietic stem cell transplant recipients before the immune reconstitution by the graft cells is achieved, organ transplant recipients on medication with an immunosuppressant, and patients with immunodeficiency syndrome. […] For patients who, at the physician's discretion, are assessed as being at high risk for AdV infection/recurrence of disease, the treatment period may be extended for up to 10 weeks, even after the 4-week treatment period is completed, if the AdV is not detected by the two most recent consecutive assays with an interval of 3 days at least. […] Adverse events are evaluated according to the National Cancer Institute Common Terminology Criteria for Adverse Events (NCI CTCAE) version 5.0 (grade 1-5). […]

[2] = Human clinical study of once-weekly IV BCV (Example 4): adverse events; assay type: in vivo; conditions: cohort 4: 0.4 mg/kg (20 mg/dose if body weight ≥50 kg) IV once weekly
Experimental: The study duration is at least 9 weeks, based on a screening period of 1 week, a treatment period of at least 4 weeks, and post-treatment follow-up period of 30 days. In the screening, after informed consent has been obtained from the patients, a screening evaluation is conducted to determine eligibility for the study. On the first day of the first week of the treatment period, patients are assigned a dose based on the applicable cohort (see the section 4.1.3 Cohorts 4-6 above). The duration of treatment is a minimum of 4 weeks and a maximum of 14 weeks, and termination is based on the treatment stopping criteria as described below. For patients who, at the physician's discretion, are assessed as being at high risk for AdV infection/recurrence of disease, the treatment period may be extended for up to 10 weeks, even after the 4-week treatment period is completed, if the AdV is not detected by the two most recent consecutive assays with an interval of 3 days at least. All patients are followed up for 30 days after the last dosing. Adverse events are evaluated according to the National Cancer Institute Common Terminology Criteria for Adverse Events (NCI CTCAE) version 5.0 (grade 1-5). In cohort 4, patients are enrolled in the initially planned dosing regimen of 0.4 mg/kg or 20 mg IV weekly. […]

[3] = BCV IV and cyclosporine administered simultaneously
[4] = cyclosporine administered at 2 hours after the end of intravenous BCV infusion over 2 hours

## CCCCCCCCCCCCCCCCOCCCOP(=O)(O)CO[C@H](CO)Cn1ccc(N)nc1=O [BCV, [(2S)-1-(4-amino-2-oxopyrimidin-1-yl)-3-hydroxypropan-2-yl]oxymethyl-(3-hexadecoxypropoxy)phosphinic acid]
[1]; BCV administered alone
  AUCinf and Cmax of BCV in plasma, cohort 3 patients versus healthy controls: substantially the same
[1]; [3]
  increase of AUCinf of BCV in plasma compared with BCV alone: approximately 3.4 fold
  increase of Cmax of BCV in plasma compared with BCV alone: ~2.3 fold
[1]; [4]
  increase of AUCinf of BCV in plasma compared with BCV alone: approximately 1.8 fold
  increase of Cmax of BCV in plasma compared with BCV alone: ~1.3 fold
[1]; statement in the embodiments, no test described
  effect of cyclosporine administration on the blood concentration of BCV: does not affect
Adenovirus (AdV)
  levels of viral load of AdV during the study period: reaches below the LOD
[2]
  occurrence of adverse events: particularly suppressed
